Measurements: patent US7615557B2, “Tetrahydro-naphthalene and urea derivatives” (Xention Limited, priority 2003, dated 2009)

Tests used:
[1] = target: T1, Human vanilloid receptor (hVR1) (Homo sapiens, UniProt Q8NER1); test: Capsaicin-induced Ca2+ influx in the human VR1-transfected CHO cell line (Assay 1); format: cell-based; conditions: human VR1-CHOluc9aeq cells, stimulation with 10 nM capsaicin, Fluo-3 fluorescence (FDSS-3000); read-out: Activity Class (IC50)
T1 construct: expressed in transfected cells
T1 sequence (Q8NER1 whole entry): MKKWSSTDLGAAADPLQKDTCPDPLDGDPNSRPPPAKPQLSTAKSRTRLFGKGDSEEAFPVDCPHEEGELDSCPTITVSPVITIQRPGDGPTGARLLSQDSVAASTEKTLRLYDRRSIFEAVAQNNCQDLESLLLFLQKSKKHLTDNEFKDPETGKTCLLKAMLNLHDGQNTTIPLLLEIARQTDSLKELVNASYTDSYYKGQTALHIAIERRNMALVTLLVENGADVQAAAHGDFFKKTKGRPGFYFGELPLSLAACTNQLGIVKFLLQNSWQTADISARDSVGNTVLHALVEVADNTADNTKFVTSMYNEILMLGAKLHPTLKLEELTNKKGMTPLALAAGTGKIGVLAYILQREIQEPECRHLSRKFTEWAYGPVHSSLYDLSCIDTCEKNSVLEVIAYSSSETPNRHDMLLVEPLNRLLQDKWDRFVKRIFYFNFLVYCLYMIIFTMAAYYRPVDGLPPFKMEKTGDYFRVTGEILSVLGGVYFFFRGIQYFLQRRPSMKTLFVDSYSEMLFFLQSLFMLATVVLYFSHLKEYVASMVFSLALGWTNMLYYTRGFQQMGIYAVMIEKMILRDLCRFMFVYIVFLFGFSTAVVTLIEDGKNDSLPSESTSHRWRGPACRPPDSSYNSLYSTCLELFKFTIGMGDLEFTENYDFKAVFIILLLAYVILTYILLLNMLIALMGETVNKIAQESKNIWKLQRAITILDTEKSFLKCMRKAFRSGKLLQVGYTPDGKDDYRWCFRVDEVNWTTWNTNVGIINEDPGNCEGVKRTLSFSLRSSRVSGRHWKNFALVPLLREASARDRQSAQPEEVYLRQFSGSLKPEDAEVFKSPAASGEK
Excerpt: [Measurement of Capsaicin-induced Ca^2+ influx in the Human VR1-transfected CHO Cell Line] (Assay 1)
• (1) Establishment of the Human VR1-CHOluc9aeq Cell Line • Human vanilloid receptor (hVR1) cDNA was cloned from libraries of axotomized dorsal root ganglia (WO 00/29577). The cloned hVR1 cDNA was constructed with pcDNA3 vector and transfected into a CHOluc9aeq cell line. The cell line contains aequorin and CRE-luciferase reporter genes as read-out signals. The transfectants were cloned by limiting dilution in selection medium (DMEM/F12 medium (Gibco BRL) supplemented with 10%
FCS, 1.4 mM Sodium pyruvate, 20 mM HEPES, 0.15% Sodium bicarbonate, 100 U/ml penicillin, 100 μg/ml streptomycin, 2 mM glutamine, non-essential amino acids and 2 mg/ml G418). Ca^2+ influx was examined in the capsaicin-stimulated clones. A high responder clone was selected and used for furter experiments in the project. The human VR1-CHOluc9aeq cells were maintained in the selection medium and passaged every 3-4 days at 1-2.5×10^5 cells/flask ([…]). • (2) Measurement of Ca^2+ Influx Using FDSS-3000 • Human VR1-CHOluc9aeq cells were suspended in a culture medium which is the same as the selection medium except for G418 and seeded at a density of 1,000 cells per well into 384-well plates (black walled clear-base/Nalge Nunc International). Following the culture for 48 hrs the medium was changed to 2 μM Fluo-3 AM (Molecular Probes) and 0.02% Puronic F-127 in assay buffer (Hank's balanced salt solution (HBSS), 17 mM HEPES (pH7.4), 1 mM Probenecid, 0.1% BSA) and the cells were incubated for 60 min at 25° C. After washing twice with assay buffer the cells were incubated with a test compound or vehicle for 20 min at 25° C. Mobilization of cytoplasmic Ca^2+ was measured by FDSS-3000 (λex=488 nm, λem=540 nm/Hamamatsu Photonics) for 60 sec after the stimulation with 10 nM capsaicin. Integral R was calculated and compared with controls. [Measurement of the Capsaicin-induced Ca^2+ Influx in Primary Cultured Rat Dorsal Root Ganglia Neurons] (Assay 2) • (1) Preparation of Rat Dorsal Root Ganglia Neurons • New born Wister rats (5-11 days) were sacrificed and dorsal root ganglia (DRG) was removed. DRG was incubated with 0.1% trypsin (Gibco BRL) in PBS(−) (Gibco BRL) for 30 min at 37° C., then a half volume of fetal calf serum (FCS) was added and the cells were spun down. The DRG neuron cells were resuspended in Ham F12/5% FCS/5% horse serum (Gibco BRL) and dispersed by repeated pipetting and passing through 70 μm mesh (Falcon). The culture plate was incubated for 3 hours at 37° C. to remove contaminating Schwann cells. Non-adherent cells were recovered and further cultured in laminin-coated 384 well plates (Nunc) at 1×10^4 cells/50 μl/well for 2 days in the presence of 50 ng/ml recombinant rat NGF (Sigma) and 50 μM 5-fluorodeoxyuridine (Sigma). • (2) Ca^2+ Mobilization Assay • DRG neuron cells were washed twice with HBSS supplemented with 17 mM BEPES (pH 7.4) and 0.1% BSA. After incubating with 2 μM fluo-3AM (Volectuar Probe), 0.02% PF127 (Gibco BRL) and 1 mM probenecid (Sigma) for 40 min at 37° C., cells were washed 3 times. The cells were incubated with VR1 antagonists or vehicle (dimethylsulfoxide) and then with 1 μM capsaicin in FDSS-6000 (λex=480 mn, λem=520 nm/Hamamatsu Photonics). The fluorescence changes at […] were monitored for 2.5 min. Integral R was calculated and compared with controls. [Organ Bath Assay to Measure the Capsaicin-induced Bladder Contraction] (Assay 3) • Male Wistar rats (10 week old) were anesthetized with ether and sacrificed by dislocating the necks. The whole urinary bladder was excised and placed in oxygenated Modified Krebs-Henseleit solution (pH 7.4) of the following composition (112 mM NaCl, 5.9 mM KCl, 1.2 mM MgCl2, 1.2 mM NaH2PO4, 2 mM CaCl2, […], 12 mM glucose). Contractile responses of the urinary bladder were studied as described previously [Maggi C A et al: Br. J. Pharmacol. 108: 801-805, 1993]. […]

| Compound | IC50 [1] [nM] | melting point [°C] |
| --- | --- | --- |
| O=C(Nc1cccc2c1C[C@@H](O)CC2)C1CCN(c2ccc(C(F)(F)F)cc2Cl)CC1 [Example 1-1, 1-[2-Chloro-4-(trifluoromethyl)phenyl]-N-[(7S)-7-hydroxy-5,6,7,8-tetrahydro-naphthalen-1-yl]piperidine-4-carboxamide] | < 100 | – |
| O=C(Nc1cccc2c1C[C@H](O)CC2)C1CCN(c2cccc(Cl)c2)CC1 [Example 1-2, 1-[3-Chlorophenyl]-N-[(7R)-7-hydroxy-5,6,7,8-tetrahydronaphthalen-1-yl]piperidine-4-carboxamide] | < 100 | – |
| O=C(Nc1cccc2c1CC(O)CC2)C1CCN(c2ccccc2Cl)CC1 (stereo not drawn) [Example 1-3] | < 100 | 210 |
| O=C(Nc1cccc2c1CC(O)CC2)C1CCN(c2ccccc2[N+](=O)[O-])CC1 (stereo not drawn) [Example 1-4, N-(7-Hydroxy-5,6,7,8-tetrahydronaphthalen-1-yl)-1-(2-nitrophenyl)piperidine-4-carboxamide] | < 100 | 170 |
| O=C(Nc1cccc2c1CC(O)CC2)C1CCN(c2ccc(C(F)(F)F)cc2[N+](=O)[O-])CC1 (stereo not drawn) [Example 1-5, N-(7-Hydroxy-5,6,7,8-tetrahydronaphthalen-1-yl)-1-[2-nitro(trifluoromethyl)phenyl]piperidine-4-carboxamide] | < 100 | 218 |
| O=C(Nc1cccc2c1CC(O)CC2)C1CCN(c2ccccc2F)CC1 (stereo not drawn) [Example 1-6, 1-(2-Fluorophenyl)-N-(7-hydroxy-5,6,7,8-tetrahydronaphthalen-1-yl)piperidine-4-carboxamide] | < 100 | 207 |
| O=C(Nc1cccc2c1CC(O)CC2)C1CCN(c2ccc(F)cc2)CC1 (stereo not drawn) [Example 1-7, 1-(4-Fluorophenyl)-N-(7-hydroxy-5,6,7,8-tetrahydronaphthalen-1-yl)piperidine-4-carboxamide] | < 100 | 205 |
| O=C(Nc1cccc2c1CC(O)CC2)C1CCN(c2ccc(Cl)cc2C(F)(F)F)CC1 (stereo not drawn) [Example 1-8, 1-[4-Chloro-2-(trifluoromethyl)phenyl]-N-(7-hydroxy-5,6,7,8-tetrahydronaphthalen-1-yl)piperidine-4-carboxamide] | < 100 | 182 |
| O=C(Nc1cccc2c1CC(O)CC2)C1CCN(c2ccc(C(F)(F)F)cc2)CC1 (stereo not drawn) [Example 1-9, N-(7-Hydroxy-5,6,7,8-tetrahydronaphthalen-1-yl)-1-[4-(trifuoromethyl)phenyl]piperidine-4-carboxamide] | < 100 | 222 |
| O=C(Nc1cccc2c1CC(O)CC2)C1CCN(c2ccc(C(F)(F)F)cc2Cl)CC1 (stereo not drawn) [Example 1-10, 1-[2-Chloro-4-(trifluoromethyl)phenyl]-N-(7-hydroxy-5,6,7,8-tetrahydronaphthalen-1-yl)piperidine-4-carboxamide] | < 100 | 226 |
| O=C(Nc1cccc2c1C[C@H](O)CC2)C1CCN(c2ccc(F)cc2)CC1 [Example 1-11, 1-(4-Fluorophenyl)-N-[(7R)-7-hydroxy-5,6,7,8-tetrahydronaphthalen-1-yl]piperidine-4-carboxamide] | < 100 | 205 |
| O=C(Nc1cccc2c1C[C@@H](O)CC2)C1CCN(c2ccc(F)cc2)CC1 [Example 1-12, 1-(4-Fluorophenyl)-N-[(7S)-7-hydroxy-5,6,7,8-tetrahydronaphthalen-1-yl]piperidine-4-carboxamide] | < 100 | 205 |
| O=C(Nc1cccc2c1C[C@H](O)CC2)C1CCN(c2ccc(C(F)(F)F)cc2Cl)CC1 [Example 1-13, 1-[2-Chloro-4-(trifluoromethyl)phenyl]-N-[(7R)-7-hydroxy-5,6,7,8-tetrahydronaphthalen-1-yl]piperidine-4-carboxamide] | < 100 | 226 |
| O=C(Nc1cccc2c1C[C@H](O)CC2)C1CCN(c2ccccc2)CC1 [Example 1-14] | < 100 | – |
| O=C(Nc1cccc2c1C[C@H](O)CC2)C1CCN(c2cccc(C(F)(F)F)c2)CC1 [Example 1-15, N-[(7R)-7-Hydroxy-5,6,7,8-tetrahydronaphthalen-1-yl]-1-[3-trifluoromethyl-phenyl]piperidine-4-carboxamide] | < 100 | – |
| O=C(Nc1cccc2c1C[C@H](O)CC2)C1CCN(c2cccc(OC(F)(F)F)c2)CC1 [Example 1-16, N-[(7R)-7-Hydroxy-5,6,7,8-tetrahydronaphthalen-1-yl]-1-[3-trifluoromethoxy-phenyl]piperidine-4-carboxamide] | < 100 | – |
| O=C(Nc1cccc2c1C[C@H](O)CC2)C1CCN(c2ccc(Cl)cc2Cl)CC1 [Example 1-17, 1-[2,4-Dichlorophenyl]-N-[(7R)-7-hydroxy-5,6,7,8-tetrahydronaphthalen-1-yl]piperidine-4-carboxamide] | < 100 | – |
| O=C(Nc1cccc2c1C[C@H](O)CC2)C1CCN(c2ccc(OC(F)(F)F)c(OC(F)(F)F)c2)CC1 [Example 1-18, 1-[3,4-Bis[trifluoromethoxy]phenyl]-N-[(7R)-7-hydroxy-5,6,7,8-tetrahydro-naphthalen-1-yl]piperidine-4-carboxamide] | < 100 | – |
| O=C(Nc1cccc2c1C[C@H](O)CC2)C1CCN(c2ccc(OC(F)(F)F)cc2)CC1 [Example 1-19, N-[(7R)-7-Hydroxy-5,6,7,8-tetrahydronaphthalen-1-yl]-1-[4-trifluoromethoxy-phenyl]piperidine-4-carboxamide] | < 100 | – |
| O=C(Nc1cccc2c1C[C@H](O)CC2)C1CCN(c2nccc(C(F)(F)F)n2)CC1 [Example 1-20, N-[(7R)-7-Hydroxy-5,6,7,8-tetrahydronaphthalen-1-yl]-1-[4-trifluoromethyl-pyrimidin-2-yl]-piperidine-4-carboxamide] | < 100 | – |
| O=C(Nc1cccc2c1C[C@H](O)CC2)C1CCN(c2ncc(Cl)cn2)CC1 [Example 1-21, 1-[5-Chloropyrimidin-2-yl]-N-[(7R)-7-hydroxy-5,6,7,8-tetrahydronaphthalen-1-yl]piperidine-4-carboxamide] | < 100 | – |
| O=C(Nc1cccc2c1C[C@H](O)CC2)C1CCN(c2ccc([N+](=O)[O-])cc2Cl)CC1 [Example 1-22, 1-[2-Chloro-4-nitrophenyl]-N-[(7R)-7-hydroxy-5,6,7,8-tetrahydronaphthalen-1-yl]piperidine-4-carboxamide] | < 100 | – |
| CC(=O)Nc1cc(C(F)(F)F)ccc1N1CCC(C(=O)Nc2cccc3c2C[C@H](O)CC3)CC1 [Example 1-23] | < 100 | – |
| O=C(Nc1cccc2c1C[C@H](O)CC2)C1CCN(c2ccc(C(F)(F)F)cn2)CC1 [Example 1-24, N-[(7R)-7-Hydroxy-5,6,7,8-tetrahydronaphthalen-1-yl]-1-[5-(trifluoromethyl)-pyridin-2-yl]piperidine-4-carboxamide] | < 100 | – |
| O=C(Nc1cccc2c1C[C@H](O)CC2)C1CCN(c2ccc(C(F)(F)F)cc2)CC1 [Example 1-25, N-[(7R)-7-Hydroxy-5,6,7,8-tetrahydronaphthalen-1-yl]-1-[4-trifluoromethyl-phenyl]piperidine-4-carboxamide] | < 100 | – |
